Our source for the EC50 values is patent US20230219962A1, “PYRAZOLO[4,3-d]PYRIMIDINE DERIVATIVES AND METHODS OF USE THEREOF FOR THE TREATMENT OF CELLULAR PROLIFERATIVE DISORDERS” (Merck Sharp & Dohme LLC, priority 2020, published 2023).

One assay deals with T1, hTLR8 (Homo sapiens, UniProt Q9NR97).
T1 construct: host or cells: HEK-Blue hTLR8 cells (HEK293-derived, own knowledge)
T1 sequence (Q9NR97 27-1041): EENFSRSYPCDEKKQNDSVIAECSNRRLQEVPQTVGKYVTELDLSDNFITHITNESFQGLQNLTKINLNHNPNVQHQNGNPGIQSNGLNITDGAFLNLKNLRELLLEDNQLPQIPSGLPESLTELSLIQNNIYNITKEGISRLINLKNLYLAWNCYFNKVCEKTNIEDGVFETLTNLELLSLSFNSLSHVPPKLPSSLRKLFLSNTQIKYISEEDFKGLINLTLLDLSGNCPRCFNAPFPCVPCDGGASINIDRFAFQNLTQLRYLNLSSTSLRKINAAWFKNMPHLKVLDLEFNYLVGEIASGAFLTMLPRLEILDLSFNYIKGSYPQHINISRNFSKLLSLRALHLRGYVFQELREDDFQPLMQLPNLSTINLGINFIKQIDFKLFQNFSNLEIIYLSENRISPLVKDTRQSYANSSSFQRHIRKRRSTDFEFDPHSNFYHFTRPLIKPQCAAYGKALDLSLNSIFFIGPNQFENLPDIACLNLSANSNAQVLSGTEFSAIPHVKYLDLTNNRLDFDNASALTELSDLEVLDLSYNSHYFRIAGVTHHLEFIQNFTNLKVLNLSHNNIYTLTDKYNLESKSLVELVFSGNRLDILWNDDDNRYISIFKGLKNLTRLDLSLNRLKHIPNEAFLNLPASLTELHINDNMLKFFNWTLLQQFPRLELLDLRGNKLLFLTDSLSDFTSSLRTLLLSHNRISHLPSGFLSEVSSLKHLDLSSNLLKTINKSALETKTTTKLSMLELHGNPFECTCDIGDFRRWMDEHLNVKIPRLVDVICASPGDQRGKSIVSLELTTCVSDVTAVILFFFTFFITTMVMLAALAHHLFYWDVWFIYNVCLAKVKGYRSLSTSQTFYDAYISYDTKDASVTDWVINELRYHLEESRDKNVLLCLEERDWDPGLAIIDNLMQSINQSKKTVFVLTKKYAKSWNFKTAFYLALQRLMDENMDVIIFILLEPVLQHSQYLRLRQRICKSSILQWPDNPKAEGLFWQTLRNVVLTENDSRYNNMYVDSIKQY
Briefly: Human TLR8 Reporter Assay. The note with it: HEK-Blue hTLR8 cells, 16 hours, normalized to tl8-506 (1 μM) and DMSO. Type of assay: cell-based. As to the method: (§1) HEK-Blue™ hTLR8 cells (Invivogen, San Diego, Calif.) were maintained at 37° C./5% CO2/90% relative humidity in Dulbecco's Modified Eagle's Medium with 10% fetal bovine serum, 100 units/mL penicillin, 100 μg/mL streptomycin, 100 μg/mL normocin, 10 μg/mL blasticidin, and 100 μg/mL zeocin. HEK-Blue™ hTLR8 cells were maintained at 10-90% confluence and used before passage 20. For this assay, test compounds were dissolved in DMSO, and 10-point serial 3-fold dilution series in DMSO were prepared in Echo Qualified 384-well Polypropylene Microplates (Labcyte, San Jose, Calif.). Assay plates (384-well flat, clear bottom, black polystyrene TC-treated microtiter plates; Corning, Corning, N.Y.) were prepared by dispensing 150 nL of test compounds, high control (tl8-506; Invivogen, San Diego, Calif.), and low control (DMSO) by ECHO acoustic dispenser (Labcyte, San Jose Calif.) followed by addition of 5 μL of HEK-Blue™ Detection assay media (Invivogen, San Diego, Calif.). HEK-Blue™ hTLR8 cells in HEK-Blue™ Detection assay media (20,000 cells per well in 45 μL of media) were added to the assay plate and incubated for 16 hours at 37° C./5% CO2/90% relative humidity. For detection, assay plates were removed from the incubator, allowed to cool to ambient temperature, centrifuged at 200×g for 1 minutes, and read with an EnSpire Multimode Plate Reader (Perkin Elmer, Waltham, Mass.) for absorbance at 620 nm. Test compound effects were normalized to the window defined by the controls, tl8-506 (1 μM), and DMSO. Calculated % effects were fit using a 4-parameter algorithm, and EC50 was reported.
On the technique in general: A reporter such as luciferase makes a cellular process visible.

The next assay has as its target T2, hTLR7 (Homo sapiens, UniProt Q9NYK1).
T2 construct: host or cells: HEK-Blue hTLR7 cells (HEK293-derived, own knowledge)
T2 sequence (Q9NYK1 27-1049): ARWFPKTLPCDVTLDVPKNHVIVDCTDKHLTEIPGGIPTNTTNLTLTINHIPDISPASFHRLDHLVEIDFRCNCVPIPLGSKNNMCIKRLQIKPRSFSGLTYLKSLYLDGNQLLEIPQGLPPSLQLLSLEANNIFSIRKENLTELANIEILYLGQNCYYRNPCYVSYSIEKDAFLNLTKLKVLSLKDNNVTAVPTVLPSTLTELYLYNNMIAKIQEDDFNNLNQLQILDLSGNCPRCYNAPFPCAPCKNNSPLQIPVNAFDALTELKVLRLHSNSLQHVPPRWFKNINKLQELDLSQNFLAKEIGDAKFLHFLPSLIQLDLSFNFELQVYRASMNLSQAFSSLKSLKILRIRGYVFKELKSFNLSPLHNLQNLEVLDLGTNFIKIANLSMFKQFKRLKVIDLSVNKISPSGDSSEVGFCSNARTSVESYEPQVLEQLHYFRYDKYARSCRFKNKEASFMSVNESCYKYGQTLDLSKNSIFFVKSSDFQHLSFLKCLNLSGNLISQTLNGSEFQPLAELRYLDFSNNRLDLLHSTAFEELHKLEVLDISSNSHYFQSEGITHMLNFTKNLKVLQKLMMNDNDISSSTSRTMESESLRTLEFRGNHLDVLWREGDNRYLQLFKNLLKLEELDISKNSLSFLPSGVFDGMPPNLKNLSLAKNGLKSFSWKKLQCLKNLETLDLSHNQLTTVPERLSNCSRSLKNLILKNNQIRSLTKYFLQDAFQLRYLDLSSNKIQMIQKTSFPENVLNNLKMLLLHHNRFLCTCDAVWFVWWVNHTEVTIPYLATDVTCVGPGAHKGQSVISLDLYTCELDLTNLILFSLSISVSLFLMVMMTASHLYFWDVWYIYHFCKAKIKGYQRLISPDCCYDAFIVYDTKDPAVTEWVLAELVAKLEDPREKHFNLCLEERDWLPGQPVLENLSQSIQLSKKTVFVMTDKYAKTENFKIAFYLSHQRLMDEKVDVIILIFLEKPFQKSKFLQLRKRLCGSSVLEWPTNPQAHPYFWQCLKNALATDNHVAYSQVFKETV
The experiment in a line: Human TLR7 Reporter Assay. The format is cell-based. Conditions: HEK-Blue hTLR7 cells, 16 hours, normalized to CL097 (6 μM) and DMSO. The protocol:
as §1, with “hTLR7” for “hTLR8”, “(CL097;” for “(tl8-506;”, “CL097 (6” for “tl8-506 (1”

For orientation: EC50 means the concentration at which the effect is half-maximal. Read a high EC50 as lower potency in that assay. Take `COc1cccc(OC)c1Cn1cc2nc(N)nc(NCC(C)O)c2n1` (stereo not shown) [Compound 49]: the EC50 at hTLR8 is above 29900 nM; at hTLR7, 7290 nM.
For `COc1cccc(OC)c1Cn1cc2nc(N)nc(NCC(C)C)c2n1` [Compound 50], in that order: above 29900 nM and 843 nM.
Consider `COc1cccc(OC)c1Cn1cc2nc(N)nc(NCCC(C)O)c2n1` (stereo not shown) [Compound 51], for which the EC50 is above 29900 nM at hTLR8 and 4730 nM at hTLR7.
The matching figures for `COc1cccc(OC)c1Cn1cc2nc(N)nc(NCCC(C)O)c2n1` (stereo not shown) [Compound 52]: above 29900 nM and 2800 nM.
In the case of `COc1cccc(OC)c1Cn1cc2nc(N)nc(NCCC(C)C)c2n1` [Compound 53], the EC50 on hTLR8 is above 29900 nM; on hTLR7, 858 nM.
For `COc1cccc(OC)c1Cn1cc2nc(N)nc(NCCCC(C)C)c2n1` [Compound 54], the EC50 at hTLR8 was above 29900 nM; at hTLR7 it was 496 nM.
With `CCC(C)CNc1nc(N)nc2cn(Cc3c(OC)cccc3OC)nc12` (stereo not shown) [Compound 56], the figures for the EC50 at hTLR8 and on hTLR7 were above 9980 nM and 369 nM, respectively.
Turning to `CCCCNc1nc(N)nc2cn(Cc3ccc(N4CCNCC4)cc3OC)nc12` [Compound 58], the EC50 stood at 345 nM at hTLR8 and 228 nM on hTLR7.
Regarding `CCCCNc1nc(N)nc2cn(Cc3cc(N4CCNCC4)ccc3OC)nc12` [Compound 59], the EC50 came to 2640 nM on hTLR8 and 964 nM on hTLR7.
In the case of `CCCCNc1nc(N)nc2cn(Cc3ccc(CN4CCNCC4)cc3OC)nc12` [Compound 61], the EC50 was 438 nM on hTLR8 and 344 nM at hTLR7.
`CCCCNc1nc(N)nc2cn(Cc3c(OC)cc(CN4CCNCC4)cc3OC)nc12` [Compound 62]: the EC50 stood at 1490 nM at hTLR8 and 840 nM on hTLR7.
With `CCCCNc1nc(N)nc2cnn(Cc3c(OC)cc(CN4CCNCC4)cc3OC)c12` [Compound 63], the EC50 at hTLR8 turned out to be 2410 nM; on hTLR7 it was 50.8 nM.
As to `CCCCNc1nc(N)nc2cn(Cc3c(OC)cc(N4CCNCC4)cc3OC)nc12` [Compound 64], the EC50 on hTLR8 worked out at 348 nM; at hTLR7, 518 nM.
The matching figures for `CCCCNc1nc(N)nc2cn(Cc3c(OC)cc(N)cc3OC)nc12` [Compound 65]: 1020 nM and 119 nM.
The matching figures for `CCCCNc1nc(N)nc2cn(Cc3c(OC)cc(CN)cc3OC)nc12` [Compound 66]: 199 nM and 493 nM.
As to `CCCCNc1nc(N)nc2cn(Cc3c(OC)cc(CCN)cc3OC)nc12` [Compound 67], the EC50 on hTLR8 turned out to be 392 nM; at hTLR7 it was 281 nM.
`CCCCNc1nc(N)nc2cn(Cc3ccc(N4CCN(C(=O)C5CCC(CN6C(=O)C=CC6=O)CC5)CC4)cc3OC)nc12` (stereo not shown) [Compound 68]: the EC50 is 3640 nM at hTLR8 and 190 nM at hTLR7.
Take `CCCCNc1nc(N)nc2cn(Cc3ccc(CN4CCN(C(=O)C5CCC(CN6C(=O)C=CC6=O)CC5)CC4)cc3OC)nc12` (stereo not shown) [Compound 69]: the values for the EC50 on hTLR8 and at hTLR7 were 1490 nM and 243 nM, respectively.
In the case of `CCCCNc1nc(N)nc2cn(Cc3cc(N4CCN(C(=O)C5CCC(CN6C(=O)C=CC6=O)CC5)CC4)ccc3OC)nc12` (stereo not shown) [Compound 70], the EC50 is 908 nM at hTLR8 and above 1110 nM on hTLR7.
Consider `CCCCNc1nc(N)nc2cn(Cc3cc(CN4CCN(C(=O)C5CCC(CN6C(=O)C=CC6=O)CC5)CC4)ccc3OC)nc12` (stereo not shown) [Compound 71], for which the EC50 at hTLR8 stood at 3040 nM; at hTLR7, 267 nM.
`CCCCNc1nc(N)nc2cn(Cc3c(OC)cc(CNC(=O)C4CCC(CN5C(=O)C=CC5=O)CC4)cc3OC)nc12` (stereo not shown) [Compound 72]: the figures for the EC50 on hTLR8 and at hTLR7 were above 29900 nM and 597 nM, respectively.
Turning to `CCCCNc1nc(N)nc2cn(Cc3c(OC)cc(CN4CCN(C(=O)C5CCC(CN6C(=O)C=CC6=O)CC5)CC4)cc3OC)nc12` (stereo not shown) [Compound 74], the concentration giving a half-maximal response (EC50) on hTLR8 was above 29900 nM; at hTLR7 it was 3330 nM.
Take `CCCCNc1nc(N)nc2cn(Cc3c(OC)ccc(CN)c3OC)nc12` [Compound 76]: the EC50 on hTLR8 amounted to 719 nM; on hTLR7, 3040 nM.
Regarding `CCCCNc1nc(N)nc2cn(Cc3c(OC)ccc(N)c3OC)nc12` [Compound 77], the results for the EC50 on hTLR8 and at hTLR7 were 1530 nM and 490 nM, respectively.
For `CCCCNc1nc(N)nc2cn(Cc3c(OC)ccc(CN4CCNCC4)c3OC)nc12` [Compound 78], in that order: 2560 nM and 2650 nM.
For `CCCCNc1nc(N)nc2cn(Cc3c(OC)ccc(CCN)c3OC)nc12` [Compound 79], in that order: 1810 nM and 4450 nM.
